Assay results as given in ChEMBL document CHEMBL3706492, “CYP3A4-mediated hepatic metabolism of the HIV-1 protease inhibitor saquinavir in vitro” (Xenobiotica, 2002).

Legend:
Settings in all cases: human, microsomes
[1] = (§1) Fraction of total metabolites recovered as M4; format: ADME, Small intestine, Microsome
[2] = as §1; format: ADME, Liver, Microsome
[3] = (§2) Fraction of total metabolites recovered as M10; format: ADME, Small intestine, Microsome
[4] = as §2; format: ADME, Liver, Microsome

Row | SMILES | Compound recovery [1] [%] | Compound recovery [2] [%] | Compound recovery [3] [%] | Compound recovery [4] [%]
1 | CC(C)(C)NC(=O)[C@@H]1C[C@@H]2C[C@@H](O)CC[C@@H]2CN1C[C@@H](O)[C@H](Cc1ccccc1)NC(=O)[C@H](CC(N)=O)NC(=O)c1ccc2ccccc2n1 | 21 | 21 | – | –
2 | CC(C)(CO)NC(=O)[C@@H]1C[C@@H]2CCCC[C@@H]2CN1C[C@@H](O)[C@H](Cc1ccccc1)NC(=O)[C@H](CC(N)=O)NC(=O)c1ccc2ccccc2n1 | – | – | 6 | 6
